Key:
[1] = target: T1, bromodomain-containing protein 4 (BRD4) (Homo sapiens, UniProt O60885); assay: BRD4 Western blot (degradation); assay type: cell-based; settings: at 1 μM; VCaP cells, 16 h
T1 construct: VCaP cells were chased from ATCC and cultured in Dulbecco's Modified Eagle's Medium; host or cells: VCaP
Experimental: (§1) The following biological assays were performed to evaluate the protein degradation in various cell types using representative compounds disclosed. The degradation of the following proteins were evaluated: bromodomain-containing protein 4 (BRD4), androgen receptor (AR), c-Myc, c-Jun N-terminal kinases (JNK), and enhancer of zeste homolog 2 (EZH2).
VCaP cells were chased from ATCC and cultured in Dulbecco's Modified Eagle's Medium (ATCC), supplemented with 10% FBS (ATCC) and Penicillin/Streptomycin (Life Technologies). DMSO control and compound treatments (0.03 μM to 1 μM) were performed in 12-well plates for 16 h. cells were harvested, and lysed in RIPA buffer (50 mM Tris pH8, 150 mM NaCl, 1% Tx-100, 0.1% SDS, 0.5% sodium deoxycholate) supplemented with protease and phosphatase inhibitors. Lysates were clarified at 16,000 g for 10 minutes, and protein concentration was determined. Equal amount of protein (20 μg) was subjected to SDS-PAGE analysis and followed by immunoblotting according to standard protocols. The antibodies used were BRD4 (Cell signaling #13440), and Actin (Sigma #5441). Detection reagents were Clarity Western ELC substrate (Bio-rad #170-5060).

[2] = system: p53; assay: Western blot of HCT116 cells, p53 level; assay type: cell-based, human; settings: Western blot (FIG. 2, FIG. 3)
[3] = target: T2, MDM2 (Homo sapiens, UniProt Q00987); assay: Western blot of HCT116 cells, MDM2 level; assay type: cell-based; settings: Western blot (FIG. 2, FIG. 3)
T2 construct: Western blot of HCT116 cells treated with chimeric molecules; endogenous in cells; host or cells: HCT116

[4] = system: p53^WT HCT-116 colon cancer cell lines; assay: Cell growth assay; assay type: cell-based, human; settings: p53^WT HCT-116 (FIG. 4)
[5] = target: BRD4 (Homo sapiens, UniProt O60885); assay: Time course of BRD4 degradation in A549; assay type: cell-based; design: endogenous in cells; host or cells: A549; settings: human lung cancer cell line A549 (FIG. 6)
[6] = system: c-Jun N-terminal kinases (JNK); assay: JNK Western blot assay (degradation); assay type: cell-based; settings: at 1 μM; 16 h
Experimental: as §1
(§2) Cells were purchased from ATCC and cultured in Dulbecco's Modified Eagle's Medium (ATCC), supplemented with 10% FBS (ATCC) and Penicillin/Streptomycin (Life Technologies). […] Cells were harvested, and lysed in RIPA buffer (50 mM Tris pH8, 150 mM NaCl, 1% Tx-100, 0.1% SDS, 0.5% sodium deoxycholate) supplemented with protease and phosphatase inhibitors. Lysates were clarified at 16,000 g for 10 minutes, and protein concentration was determined. Equal amount of protein (20 μg) was subjected to SDS-PAGE analysis and followed by immunoblotting according to standard protocols.

[7] = target: enhancer of zeste homolog 2 (EZH2) (Homo sapiens, UniProt Q15910); assay: EZH2 Western blot assay (degradation); assay type: cell-based; settings: at 1 μM; 16 h
Experimental: as §1, §2

T2 sequence (Q00987 whole entry): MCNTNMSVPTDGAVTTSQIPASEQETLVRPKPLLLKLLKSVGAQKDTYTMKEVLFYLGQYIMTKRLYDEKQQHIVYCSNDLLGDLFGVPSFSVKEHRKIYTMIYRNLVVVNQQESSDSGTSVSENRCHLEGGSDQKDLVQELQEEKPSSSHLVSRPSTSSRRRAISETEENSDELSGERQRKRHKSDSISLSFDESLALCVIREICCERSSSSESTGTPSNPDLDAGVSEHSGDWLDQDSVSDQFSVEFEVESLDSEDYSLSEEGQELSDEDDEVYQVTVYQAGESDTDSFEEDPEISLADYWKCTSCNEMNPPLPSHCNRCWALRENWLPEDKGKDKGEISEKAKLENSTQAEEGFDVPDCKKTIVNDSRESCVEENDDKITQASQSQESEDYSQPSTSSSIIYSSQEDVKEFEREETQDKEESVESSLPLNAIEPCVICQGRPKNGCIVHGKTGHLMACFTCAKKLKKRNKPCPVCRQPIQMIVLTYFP
enhancer of zeste homolog 2 (EZH2), sequence (Q15910 whole entry): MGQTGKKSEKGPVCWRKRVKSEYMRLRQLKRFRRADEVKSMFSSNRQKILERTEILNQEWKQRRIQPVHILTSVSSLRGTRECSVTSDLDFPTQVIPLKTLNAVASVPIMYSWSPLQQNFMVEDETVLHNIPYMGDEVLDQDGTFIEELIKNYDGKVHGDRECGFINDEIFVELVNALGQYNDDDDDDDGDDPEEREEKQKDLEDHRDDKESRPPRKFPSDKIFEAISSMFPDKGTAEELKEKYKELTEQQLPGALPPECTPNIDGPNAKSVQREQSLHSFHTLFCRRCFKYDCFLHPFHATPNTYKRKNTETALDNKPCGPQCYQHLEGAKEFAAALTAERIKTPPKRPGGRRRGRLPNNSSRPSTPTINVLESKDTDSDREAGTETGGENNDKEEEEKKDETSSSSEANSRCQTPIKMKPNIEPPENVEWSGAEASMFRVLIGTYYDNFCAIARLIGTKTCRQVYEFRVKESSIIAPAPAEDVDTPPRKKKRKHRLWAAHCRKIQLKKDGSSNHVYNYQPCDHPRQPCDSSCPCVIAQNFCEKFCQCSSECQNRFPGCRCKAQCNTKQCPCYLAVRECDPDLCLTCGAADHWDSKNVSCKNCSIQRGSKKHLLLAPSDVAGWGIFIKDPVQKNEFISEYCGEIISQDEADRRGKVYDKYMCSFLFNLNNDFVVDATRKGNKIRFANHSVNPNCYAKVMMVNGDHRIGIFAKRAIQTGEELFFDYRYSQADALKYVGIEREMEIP
enhancer of zeste homolog 2 (EZH2), sequence (O75530 whole entry partner): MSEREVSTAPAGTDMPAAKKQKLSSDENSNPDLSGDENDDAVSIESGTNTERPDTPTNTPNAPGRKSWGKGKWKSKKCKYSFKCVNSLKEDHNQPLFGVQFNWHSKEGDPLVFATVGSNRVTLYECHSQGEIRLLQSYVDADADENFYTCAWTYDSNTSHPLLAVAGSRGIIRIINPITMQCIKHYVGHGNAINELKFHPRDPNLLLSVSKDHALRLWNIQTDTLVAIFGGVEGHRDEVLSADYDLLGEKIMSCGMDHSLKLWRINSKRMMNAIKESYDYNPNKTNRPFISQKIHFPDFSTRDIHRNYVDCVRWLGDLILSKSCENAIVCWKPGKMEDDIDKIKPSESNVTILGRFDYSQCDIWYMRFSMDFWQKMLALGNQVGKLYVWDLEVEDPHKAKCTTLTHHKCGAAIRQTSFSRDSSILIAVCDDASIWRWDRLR
enhancer of zeste homolog 2 (EZH2), sequence (Q15022 whole entry partner): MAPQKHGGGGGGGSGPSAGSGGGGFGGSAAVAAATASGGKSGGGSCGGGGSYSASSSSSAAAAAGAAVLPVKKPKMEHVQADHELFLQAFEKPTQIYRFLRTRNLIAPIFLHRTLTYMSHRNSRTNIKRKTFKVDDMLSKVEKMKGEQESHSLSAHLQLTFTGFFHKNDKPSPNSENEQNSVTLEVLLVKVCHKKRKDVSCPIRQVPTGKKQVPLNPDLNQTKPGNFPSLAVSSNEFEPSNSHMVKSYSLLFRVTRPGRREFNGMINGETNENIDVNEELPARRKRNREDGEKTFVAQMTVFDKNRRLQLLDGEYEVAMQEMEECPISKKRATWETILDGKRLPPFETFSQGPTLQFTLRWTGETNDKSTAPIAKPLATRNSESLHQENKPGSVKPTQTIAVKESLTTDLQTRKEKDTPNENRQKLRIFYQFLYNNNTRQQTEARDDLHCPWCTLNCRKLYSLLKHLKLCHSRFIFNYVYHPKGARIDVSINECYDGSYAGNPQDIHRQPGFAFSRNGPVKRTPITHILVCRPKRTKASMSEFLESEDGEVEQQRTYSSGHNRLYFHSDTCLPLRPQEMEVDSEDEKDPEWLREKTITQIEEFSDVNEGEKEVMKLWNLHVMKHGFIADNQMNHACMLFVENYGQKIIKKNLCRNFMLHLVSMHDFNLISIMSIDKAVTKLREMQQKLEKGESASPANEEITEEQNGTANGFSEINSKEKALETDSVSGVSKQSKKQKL

Compound	Degradation activity BRD4 [1]	p53 level increase [2]	MDM2 up-regulation [3]	Degradation activity JNK [6]	other results
COc1cc(C(=O)NCCOCCNC(=O)C[C@@H]2N=C(c3ccc(Cl)cc3)c3c(sc(C)c3C)-n3c(C)nnc32)ccc1NC(=O)[C@@H]1N[C@@H](CC(C)(C)C)[C@](C#N)(c2ccc(Cl)cc2F)[C@H]1c1cccc(Cl)c1F [Compound A1892, (2R,3S,4R,5S)-3-(3-chloro-2-fluorophenyl)-4-(4-chloro-2-fluorophenyl)-N-(4-{[2-(2-{2-[(9S)-7-(4-chlorophenyl)-4,5,13-trimethyl-3-thia-1,8,11,12-tetraazatricyclo[8.3.0.0^2,^6]-trideca-2(6),4,7,10,12-pentaen-9-yl]acetamido}ethoxy)ethyl]carbamoyl}-2-methoxyphenyl)-4-cyano-5-(2,2-dimethylpropyl)pyrrolidine-2-carboxamide]	C (larger than 50% degradation at 1 μM)	dose dependent p53 level increase	up-regulation of MDM2		
COc1cc(C(=O)NCCOCCOCCOCCOCCNC(=O)C[C@@H]2N=C(c3ccc(Cl)cc3)c3c(sc(C)c3C)-n3c(C)nnc32)ccc1NC(=O)[C@@H]1N[C@@H](CC(C)(C)C)[C@](C#N)(c2ccc(Cl)cc2F)[C@H]1c1cccc(Cl)c1F [Compound A1893, (2R,3S,4R,5S)-3-(3-chloro-2-fluorophenyl)-4-(4-chloro-2-fluorophenyl)-N-{4-[(14-{2-[(9S)-7-(4-chlorophenyl)-4,5,13-trimethyl-3-thia-1,8,11,12-tetraazatricyclo[8.3.0.0^2,^6]-trideca-2(6),4,7,10,12-pentaen-9-yl]acetamido}-3,6,9,12-tetraoxatetradecan-1-yl)carbamoyl]-2-methoxyphenyl}-4-cyano-5-(2,2-dimethylpropyl)pyrrolidine-2-carboxamide]	C (larger than 50% degradation at 1 μM)	dose dependent p53 level increase	up-regulation of MDM2		growth inhibition [4]: very potent growth inhibition; BRD4 degradation, time course [5]: BRD4 degradation
COc1cc(C(=O)NCCOCCOCCOCCOCCNC(=O)C[C@@H]2N=C(c3ccc(Cl)cc3)c3c(sc(C)c3C)-n3c(C)nnc32)ccc1NC(=O)[C@H]1N[C@H](CC(C)(C)C)[C@@](C#N)(c2ccc(Cl)cc2F)[C@@H]1c1cccc(Cl)c1F [Compound A1894, (2S,3R,4S,5R)-3-(3-chloro-2-fluorophenyl)-4-(4-chloro-2-fluorophenyl)-N-{4-[(14-{2-[(9S)-7-(4-chlorophenyl)-4,5,13-trimethyl-3-thia-1,8,11,12-tetraazatricyclo[8.3.0.0^2,^6]-trideca-2(6),4,7,10,12-pentaen-9-yl]acetamido}-3,6,9,12-tetraoxatetradecan-1-yl)carbamoyl]-2-methoxyphenyl}-4-cyano-5-(2,2-dimethylpropyl)pyrrolidine-2-carboxamide]	A (0 to 25% degradation at 1 μM)	no p53 level increase	no MDM2 up-regulation		
COc1cc(C(=O)NCCOCCO[C@H]2CC[C@H](Nc3nccc(-c4cnn(Cc5ccccc5)c4N(C)C)n3)CC2)ccc1NC(=O)C1N[C@@H](CC(C)(C)C)[C@](C#N)(c2ccc(Cl)cc2F)[C@H]1c1cccc(Cl)c1F (stereo partly drawn) [Compound A2720, 3-(3-chloro-2-fluorophenyl)-4-(4-chloro-2-fluorophenyl)-4-cyano-5-(2,2-dimethylpropyl)-N-(2-methoxy-4-{[2-(2-{[(1,4-trans)-4-({4-[1-benzyl-5-(dimethylamino)-1H-pyrazol-4-yl]pyrimidin-2-yl}amino)cyclohexyl]oxy}ethoxy)ethyl]carbamoyl}phenyl)pyrrolidine-2-carboxamide]				A (0 to 25% degradation at 1 μM)	
COc1ccc(C(=O)NCCOCCOCCO[C@H]2CC[C@H](Nc3nccc(-c4cnn(Cc5ccccc5)c4N(C)C)n3)CC2)cc1NC(=O)C1N[C@@H](CC(C)(C)C)[C@](C#N)(c2ccc(Cl)cc2F)[C@H]1c1cccc(Cl)c1F (stereo partly drawn) [Compound A2766, 3-(3-chloro-2-fluorophenyl)-4-(4-chloro-2-fluorophenyl)-4-cyano-5-(2,2-dimethylpropyl)-N-[2-methoxy-5-({2-[2-(2-{[(1,4-trans)-4-({4-[1-benzyl-5-(dimethylamino)-1H-pyrazol-4-yl]pyrimidin-2-yl}amino)cyclohexyl]oxy}ethoxy)ethoxy]ethyl}carbamoyl)phenyl]pyrrolidine-2-carboxamide]				A (0 to 25% degradation at 1 μM)	
CCN(c1cc(-c2ccc(OCCOCCOCCOCCNC(=O)c3ccc(NC(=O)C4NC(CC(C)(C)C)C(C#N)(c5ccc(Cl)cc5F)C4c4cccc(Cl)c4F)c(OC)c3)cc2)cc(C(=O)NCc2c(C)cc(C)[nH]c2=O)c1C)C1CCOCC1 (centres unmarked) [Compound A2790, 3-(3-chloro-2-fluorophenyl)-4-(4-chloro-2-fluorophenyl)-4-cyano-N-[4-({1-[4-(3-{[(4,6-dimethyl-2-oxo-1,2-dihydropyridin-3-yl)methyl]carbamoyl}-5-[ethyl(oxan-4-yl)amino]-4-methylphenyl)phenyl]-1,4,7,10-tetraoxadodecan-12-yl}carbamoyl)-2-methoxyphenyl]-5-(2,2-dimethylpropyl)pyrrolidine-2-carboxamide]					Degradation activity EZH2 [7]: A (0 to 25% degradation at 1 μM)
COc1cc(C(=O)NCCOCCOCCOCCO[C@H]2CC[C@H](Nc3nccc(-c4cnn(Cc5ccccc5)c4N(C)C)n3)CC2)ccc1NC(=O)C1N[C@@H](CC(C)(C)C)[C@](C#N)(c2ccc(Cl)cc2F)[C@H]1c1cccc(Cl)c1F (stereo partly drawn) [Compound A2791, 3-(3-chloro-2-fluorophenyl)-4-(4-chloro-2-fluorophenyl)-4-cyano-5-(2,2-dimethylpropyl)-N-[2-methoxy-4-({1-[(1,4-trans)-4-({4-[1-benzyl-5-(dimethylamino)-1H-pyrazol-4-yl]pyrimidin-2-yl}amino)cyclohexyl]-1,4,7,10-tetraoxadodecan-12-yl}carbamoyl)phenyl]pyrrolidine-2-carboxamide]				A (0 to 25% degradation at 1 μM)	
COc1ccc(C(=O)NCCOCCOCCOCCOCCO[C@H]2CC[C@H](Nc3nccc(-c4cnn(Cc5ccccc5)c4N(C)C)n3)CC2)cc1NC(=O)C1N[C@@H](CC(C)(C)C)[C@](C#N)(c2ccc(Cl)cc2F)[C@H]1c1cccc(Cl)c1F (stereo partly drawn) [Compound A2792, 3-(3-chloro-2-fluorophenyl)-4-(4-chloro-2-fluorophenyl)-4-cyano-5-(2,2-dimethylpropyl)-N-[2-methoxy-5-({1-[(1,4-trans)-4-({4-[1-benzyl-5-(dimethylamino)-1H-pyrazol-4-yl]pyrimidin-2-yl}amino)cyclohexyl]-1,4,7,10,13-pentaoxapentadecan-15-yl}carbamoyl)phenyl]pyrrolidine-2-carboxamide]				A (0 to 25% degradation at 1 μM)	
CCN(c1cc(-c2ccc(OCCOCCOCCOCCOCCOCCNC(=O)c3ccc(NC(=O)C4NC(CC(C)(C)C)C(C#N)(c5ccc(Cl)cc5F)C4c4cccc(Cl)c4F)c(OC)c3)cc2)cc(C(=O)NCc2c(C)cc(C)[nH]c2=O)c1C)C1CCOCC1 (centres unmarked) [Compound A2844, 3-(3-chloro-2-fluorophenyl)-4-(4-chloro-2-fluorophenyl)-4-cyano-N-[4-({1-[4-(3-{[(4,6-dimethyl-2-oxo-1,2-dihydropyridin-3-yl)methyl]carbamoyl}-5-[ethyl(oxan-4-yl)amino]-4-methylphenyl)phenyl]-1,4,7,10,13,16-hexaoxaoctadecan-18-yl}carbamoyl)-2-methoxyphenyl]-5-(2,2-dimethylpropyl)pyrrolidine-2-carboxamide]					Degradation activity EZH2 [7]: A (0 to 25% degradation at 1 μM)

— patent publication US12577255B2, “MDM2-based modulators of proteolysis and associated methods of use” (Arvinas Operations, Inc., priority 2015, dated 2026)
